Measured values: US8629293B2, “Process for the preparation of FE(III) chelates of N,N′-DI(2-hydroxybenzyl)-ethylenediamine-N,N′-diacetic acid and its derivatives” (Przedsiebiorstwo Produkcyjno-Consultingowe Adob SP. Z O.O. …, priority 2009, dated 2014)

Legend:
Type in all cases: in vivo
[1] = system: 7-year old trees of flat peach (Prunus persica var. platycarpa) grafted on the GF677 root stock with visible symptoms of chlorosis; assay: Field test, testing field No. 2: SPAD index of leaves; conditions: 0.9 g of the chelated Fe/tree
Description: (§1) The comparison included two chelate agents for supplementing iron deficiencies: HBED/Fe^3+ as well as the commercially available, highly purified EDDHA/Fe^3+. The studies were carried out on two fields with the soil having an alkaline pH as well as a high concentration of calcium ions. The chelates were applied directly to the soil by means of a dripper immersed in the soil.
7-year old trees of flat peach (Prunus persica var. platycarpa) grafted on the GF677 root stock with visible symptoms of chlorosis
The chelates were applied at the following concentrations: • EDDHA/Fe^3+: high concentration (0.9 g of the chelated Fe/tree) • HBED/Fe^3+: high concentration (0.9 g of the chelated Fe/tree) • control trial: without Fe
The chelate solutions were dosed directly to the ground below the dripper. In this case, the whole dose of the chelates were applied in one portion. The symptoms of chlorosis were visible at the beginning of the experiment.
The samples for determination of the SPAD index of leaves were taken approximately every two weeks (on day 0, 20, 40 and 63 after application of the chelates).

[2] = system: 10-year old nectarine trees, cultivar "Zephyr" grafted on the GF677 root stock; assay: Field test, testing field No. 1: SPAD index; conditions: 0.9 g of the chelated Fe/tree
Description: as §1
10-year old nectarine trees, cultivar “Zephyr” grafted on the GF677 root stock
The chelates were applied at the following concentrations: • EDDHA/Fe^3+: high concentration (0.9 g of the chelated Fe/tree) • HBED/Fe^3+: low concentration (0.45 g of the chelated Fe/tree) • HBED/Fe^3+: high concentration (0.9 g of the chelated Fe/tree) • control trial: without Fe
The chelate solutions of various concentrations were applied in three portions (50%, 30%, and finally 20% of the whole dose, respectively) directly to the ground below the dripper.
The SPAD index was measured approximately every two weeks: on day 14, 29, 44, 61, 88 and 99 after application of the chelates.

[3] = system: soybean (Glycine max L.) var. Stine 0480; assay: Fertilising of soya in plant growth climatic chamber: plant dry matter
Description: (§2) The experiment was performed using the seeds of soybean (Glycine max L.) var. Stine 0480. A standard seed germination procedure was followed. Before starting the experiment, the seeds were thoroughly washed with water (30 minutes). The clean seeds were placed between two sheets of a cellulose paper soaked with water. The seeds germinated over two days in a climatic chamber at a temperature of 30° C. and a humidity of 60%, without access of light. After that time, the seedlings at a similar stage of development were placed on perforated trays floating over containers containing 10 L of the diluted nutrient solution for four days, followed by next three days using a solution containing micronutrients but without iron. Composition of the nutrient solution was: 1 mM Ca(NO3)2, 0.90 mM KNO3, 0.30 mM MgSO4, 0.10 mM KH2PO4, 2.5 μM MnSO4, 1.0 μM CuSO4, 10 μM ZnSO4, 1.0 μM NiCl2, 1.0 μM CoSO4, 115.5 μM Na2EDTA, 231 μM KOH, 35 μM NaCl, 10 μM H3BO3, 0.05 μM Na2MoO4 and 0.1 mM of N-(2-hydroxyethyl)piperazine-N′-(2-ethanesulfonic acid) sodium salt (HEPES). The pH value was adjusted to 7.5 using 1M KOH. 1-litre pots were filled with soil and sand in a volume ratio of 2:1. The test plants were transplanted into the thus-prepared pots, 3 plants per each pot. The experiment was carried out with adhering to the daily cycle of plant growth: 16 h of day time (30° C., 50% humidity) and 8 h of night time (25° C., 70% humidity).
(§3) Seven days after transplanting the plants into the pots, the symptoms of chlorosis were observed. The further part of the experiment was aimed at comparison of the effectiveness of performance of FeHBED with that of the commercially available FeEDDHA. For this purpose, the solutions of FeHBED and FeEDDHA were prepared, in which the iron isotope ^57Fe was used. The concentrations of ^57Fe in the doses were 0, 1.7, 3.4, 8.4, 16.8, 25.1 and 41.9 μmol of ^57Fe/kg of soil. Each dose was applied in duplicate. Additionally, a blank test (without iron) was performed for three pots.
Table 1 summarises the results of dry matter of above-ground sprouts (leaves and stems) for the plants gathered after every application of iron solutions of various concentration for two samplings.

[4] = system: soybean (Glycine max L.) var. Stine 0480; assay: Fertilising of soya in plant growth climatic chamber: SPAD index (leaves greenness); conditions: end of experiment
Description: as §2, §3
The SPAD index (a measure of leaves greenness) was determined every two days during the whole experiment.

Compound: O=C([O-])C(NCCNC(C(=O)[O-])c1ccccc1[O-])c1ccccc1[O-].[Fe+3] (stereo not shown) [EDDHA/Fe^3+, reference compound]
- ΔSPAD index of leaves ([1]; day 0 after application): 0
- ΔSPAD index of leaves ([1]; day 20 after application): 13.00
- ΔSPAD index of leaves ([1]; day 40 after application): 17.50
- ΔSPAD index of leaves ([1]; day 63 after application): 17.25
- The SPAD index of the fructifying branches ([2]; day 14 after application): 36.00
- The SPAD index of the non-fructifying branches ([2]; day 14 after application): 35.69
- The SPAD index of the fructifying branches ([2]; day 29 after application): 37.00
- The SPAD index of the non-fructifying branches ([2]; day 29 after application): 37.77
- The SPAD index of the fructifying branches ([2]; day 44 after application): 37.82
- The SPAD index of the non-fructifying branches ([2]; day 44 after application): 36.23
- The SPAD index of the fructifying branches ([2]; day 61 after application): 37.82
- The SPAD index of the non-fructifying branches ([2]; day 61 after application): 35.15
- The SPAD index of the fructifying branches ([2]; day 88 after application): 39.09
- The SPAD index of the non-fructifying branches ([2]; day 88 after application): 37.38
- The SPAD index of the fructifying branches ([2]; day 99 after application): 38.91
- The SPAD index of the non-fructifying branches ([2]; day 99 after application): 36.92

Compound: O=C([O-])C(NCCNC(C(=O)[O-])c1ccccc1[O-])c1ccccc1[O-].[Fe+3] (stereo not shown) [o,oEDDHA, reference compound]
- Root dry weight ([3]; dose 1.7 μmol 57Fe/kg of soil): 0.44 g/3 plants
- Sprout dry weight, 1 sampling ([3]; dose 1.7 μmol 57Fe/kg of soil): 0.88 g/plant
- Sprout dry weight, 2 sampling ([3]; dose 1.7 μmol 57Fe/kg of soil): 2.08 g/plant
- Root dry weight ([3]; dose 3.4 μmol 57Fe/kg of soil): 0.51 g/3 plants
- Sprout dry weight, 1 sampling ([3]; dose 3.4 μmol 57Fe/kg of soil): 0.79 g/plant
- Sprout dry weight, 2 sampling ([3]; dose 3.4 μmol 57Fe/kg of soil): 2.92 g/plant
- Root dry weight ([3]; dose 8.4 μmol 57Fe/kg of soil): 0.49 g/3 plants
- Sprout dry weight, 1 sampling ([3]; dose 8.4 μmol 57Fe/kg of soil): 0.87 g/plant
- Sprout dry weight, 2 sampling ([3]; dose 8.4 μmol 57Fe/kg of soil): 2.03 g/plant
- Root dry weight ([3]; dose 16.8 μmol 57Fe/kg of soil): 0.53 g/3 plants
- Sprout dry weight, 1 sampling ([3]; dose 16.8 μmol 57Fe/kg of soil): 0.84 g/plant
- Sprout dry weight, 2 sampling ([3]; dose 16.8 μmol 57Fe/kg of soil): 2.56 g/plant
- Root dry weight ([3]; dose 25.1 μmol 57Fe/kg of soil): 0.59 g/3 plants
- Sprout dry weight, 1 sampling ([3]; dose 25.1 μmol 57Fe/kg of soil): 0.81 g/plant
- Sprout dry weight, 2 sampling ([3]; dose 25.1 μmol 57Fe/kg of soil): 2.73 g/plant
- Root dry weight ([3]; dose 41.9 μmol 57Fe/kg of soil): 0.49 g/3 plants
- Sprout dry weight, 1 sampling ([3]; dose 41.9 μmol 57Fe/kg of soil): 0.86 g/plant
- Sprout dry weight, 2 sampling ([3]; dose 41.9 μmol 57Fe/kg of soil): 3.20 g/plant
- The SPAD index, 2nd level of foliage ([4]; 1.7 μmol of 57Fe/kg of soil): 37.92
- The SPAD index, 3rd level of foliage ([4]; 1.7 μmol of 57Fe/kg of soil): 43.18
- The SPAD index, 2nd level of foliage ([4]; 3.4 μmol of 57Fe/kg of soil): 34.58
- The SPAD index, 3rd level of foliage ([4]; 3.4 μmol of 57Fe/kg of soil): 40.00
- The SPAD index, 2nd level of foliage ([4]; 8.4 μmol of 57Fe/kg of soil): 31.67
- The SPAD index, 3rd level of foliage ([4]; 8.4 μmol of 57Fe/kg of soil): 36.82
- The SPAD index, 2nd level of foliage ([4]; 16.8 μmol of 57Fe/kg of soil): 32.92
- The SPAD index, 3rd level of foliage ([4]; 16.8 μmol of 57Fe/kg of soil): 40.46
- The SPAD index, 2nd level of foliage ([4]; 25.1 μmol of 57Fe/kg of soil): 37.08
- The SPAD index, 3rd level of foliage ([4]; 25.1 μmol of 57Fe/kg of soil): 37.73
- The SPAD index, 2nd level of foliage ([4]; 41.9 μmol of 57Fe/kg of soil): 38.75
- The SPAD index, 3rd level of foliage ([4]; 41.9 μmol of 57Fe/kg of soil): 44.55
